Target: Glucagon receptor (Homo sapiens, UniProt P47871)
Experiment: Inhibition of human glucagon receptor expressed in CHO cell membranes by radioligand displacement assay
Assay type: cell-based

Glucagon receptor, sequence (P47871 whole entry): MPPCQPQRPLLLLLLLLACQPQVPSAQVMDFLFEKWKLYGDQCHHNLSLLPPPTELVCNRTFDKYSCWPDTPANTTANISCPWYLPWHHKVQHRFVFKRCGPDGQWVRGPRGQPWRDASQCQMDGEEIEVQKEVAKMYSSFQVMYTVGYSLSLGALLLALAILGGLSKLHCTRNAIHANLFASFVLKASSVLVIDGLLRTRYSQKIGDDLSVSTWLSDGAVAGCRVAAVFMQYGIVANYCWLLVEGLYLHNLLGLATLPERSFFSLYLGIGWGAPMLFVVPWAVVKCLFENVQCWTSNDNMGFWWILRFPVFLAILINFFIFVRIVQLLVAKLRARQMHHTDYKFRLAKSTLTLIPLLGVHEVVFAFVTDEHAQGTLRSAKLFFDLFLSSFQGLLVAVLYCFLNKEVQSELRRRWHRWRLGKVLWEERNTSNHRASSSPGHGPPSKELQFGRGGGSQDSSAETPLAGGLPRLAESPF

IC50 [nM]	SMILES
210	N#Cc1ccc(-c2nc(-c3ccncc3)c(-c3ccc(F)cc3)[nH]2)cc1
40.1	Brc1ccc(-c2nc(-c3ccncc3)c(-c3ccccc3)[nH]2)cc1
100	Fc1ccc(-c2[nH]c(-c3ccc(I)cc3)nc2-c2ccncc2)cc1
80.2	Fc1ccc(-c2nc(-c3ccc(Cl)cc3)[nH]c2-c2ccncc2)cc1
340	Fc1ccc(-c2[nH]c(-c3cccc4ccccc34)nc2-c2ccncc2)cc1
150	Clc1ccc(-c2nc(-c3ccncc3)c(-c3ccccc3Oc3ccccc3)[nH]2)cc1
140	Clc1ccc(-c2nc(-c3ccc(I)cc3)c(-c3ccncc3)[nH]2)cc1
250	Clc1ccc(-c2nc(-c3ccncc3)c(-c3ccc(Oc4ccccc4)cc3)[nH]2)cc1
50	Cc1cc(-c2[nH]c(-c3ccc(Cl)cc3)nc2-c2ccc(F)cc2)ccn1
2400	CCCOc1ccc(-c2[nH]c(-c3ccc(Cl)cc3)nc2-c2ccncc2)c(OCCC)c1
90.2	Cc1ccc(-c2nc(-c3ccc(F)cc3)c(-c3ccncc3)[nH]2)cc1
100	Oc1ccc(-c2[nH]c(-c3ccc(Br)cc3)nc2-c2ccccc2)cc1
20	Cc1cnccc1-c1nc(-c2ccc(Cl)cc2)[nH]c1-c1ccc(F)cc1
110	Fc1ccc(-c2[nH]c(-c3ccc(Br)s3)nc2-c2ccncc2)cc1
2200	Brc1ccc(-c2nc(-c3ccccc3)c(-c3ccccc3)[nH]2)cc1
23	Clc1ccc(-c2nc(-c3ccncc3)c(-c3ccc(Cl)cc3)[nH]2)cc1
3300	Clc1ccc(-c2nc(-c3ccc(-c4ccccc4)cc3)c(-c3ccncc3)[nH]2)cc1
150	Fc1ccc(-c2[nH]c(-c3cccc(Br)c3)nc2-c2ccncc2)cc1
861	CSc1ccc(-c2nc(-c3ccncc3)c(-c3ccc(F)cc3)n2C)cc1
301	Fc1ccc(-c2[nH]c(-c3ccc(-c4ccccc4)cc3)nc2-c2ccncc2)cc1
220	Clc1ccc(-c2nc(-c3ccncc3)c(-c3cccc(Oc4ccccc4)c3)[nH]2)cc1
281	CC(C)c1ccc(-c2nc(-c3ccc(F)cc3)c(-c3ccncc3)[nH]2)cc1
190	Fc1ccc(-c2[nH]c(-c3ccc(Br)o3)nc2-c2ccncc2)cc1
90.2	Fc1ccc(-c2[nH]c(-c3ccccc3Br)nc2-c2ccncc2)cc1
160	Fc1ccc(-c2nc(-c3ccc(Br)cc3)[nH]c2-c2ccncc2)cc1
590	Clc1ccc(-c2nc(-c3cccc(-c4ccccc4)c3)c(-c3ccncc3)[nH]2)cc1
120	Fc1ccc(-c2[nH]c(CCc3ccccc3)nc2-c2ccncc2)cc1
931	CSc1ccc(-c2nc(-c3ccc(F)cc3)c(-c3ccncc3)o2)cc1
521	CSc1ccc(-c2nc(-c3ccc(F)cc3)c(-c3ccncc3)n2C)cc1

From ChEMBL document CHEMBL2424514, “Prediction of glucagon receptor antagonist activities of some substituted imidazoles using combined radial basis function neural network and density functional theory” (Med Chem Res, 2013)
